{"source": "paper PMC13114161", "about": "(Antibiotics, 2026)", "key": {"P. aeruginosa ATCC 27853 [1]": {"system": "P. aeruginosa ATCC 27853", "experiment": "MIC and levofloxacin potentiation (broth microdilution)", "type": "cell-based, Pseudomonas aeruginosa", "conditions": "for MIC: Pseudomonas aeruginosa, ATCC27853"}, "[2]": {"system": "multidrug-resistant P. aeruginosa clinical isolates from the CDC-FDA", "experiment": "Levofloxacin MIC potentiation, CDC-FDA isolates", "type": "cell-based, Pseudomonas aeruginosa", "conditions": "for Levofloxacin MIC fold difference, +EPI / Levofloxacin MIC, +EPI: EPI […] (TXA11114, TXA09155) or 50 μg/mL (MC-04,124, PAβN)", "description": "In a comparative study, the levofloxacin-potentiating activity of TXA11114 was evaluated alongside the well-characterized EPIs PAβN and MC-04,124 using P. aeruginosa clinical isolates obtained from the CDC and FDA Antimicrobial Resistance Isolate Bank and the Walter Reed Army Institute of Research (WRAIR). […] While PAβN has been widely studied in laboratory strains, its activity against the CDC/FDA P. aeruginosa panel has been reported only sparingly, limiting direct cross-study comparisons.\n(§1) MIC assays for potentiation of antimicrobial activity against P. aeruginosa were performed as described previously."}, "[3]": {"system": "P. aeruginosa DA7232 (gyrA-T83I, parC-S80L)", "experiment": "Levofloxacin MIC potentiation", "type": "cell-based, Pseudomonas aeruginosa", "conditions": "DA7232; […] TXA11114", "description": "as §1"}, "CYP1A2": {"target": "T1, CYP1A2 (Homo sapiens, UniProt P05177)", "T1 construct": "from tissue; host or cells: human liver microsomes", "T1 sequence (P05177 whole entry)": "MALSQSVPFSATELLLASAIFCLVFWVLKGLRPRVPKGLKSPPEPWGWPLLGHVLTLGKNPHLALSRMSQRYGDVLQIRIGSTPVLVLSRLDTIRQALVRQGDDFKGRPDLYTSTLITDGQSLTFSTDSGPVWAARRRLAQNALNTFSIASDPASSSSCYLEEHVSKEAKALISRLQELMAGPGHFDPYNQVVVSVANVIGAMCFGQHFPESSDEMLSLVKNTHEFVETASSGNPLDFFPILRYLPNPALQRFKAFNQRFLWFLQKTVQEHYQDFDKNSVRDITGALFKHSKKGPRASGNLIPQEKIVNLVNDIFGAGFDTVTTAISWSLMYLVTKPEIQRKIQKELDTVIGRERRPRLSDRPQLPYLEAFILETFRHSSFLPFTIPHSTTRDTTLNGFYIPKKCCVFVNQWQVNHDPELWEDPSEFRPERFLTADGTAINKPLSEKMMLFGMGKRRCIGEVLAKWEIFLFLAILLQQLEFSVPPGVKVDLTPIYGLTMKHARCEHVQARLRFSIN", "experiment": "Cytochrome P450 inhibition", "type": "in vitro ADME", "conditions": "human liver microsomes; read-out: CYP Inhibition IC50, 1A2", "description": "(§2) Inhibition of CYP1A2, CYP2D6, CYP2C9, CYP2C19, and CYP3A4 by TXA11114 was assessed in human liver microsomes by measuring the inhibition of probe substrate metabolism. Phenacetin, bufuralol, diclofenac, S-mephenytoin, and midazolam were used as probe substrates for CYP1A2, CYP2D6, CYP2C9, CYP2C19, and CYP3A4, respectively. Corresponding metabolites (acetaminophen, OH-bufuralol, 4-OH diclofenac, 4-OH mephenytoin, and 1-OH midazolam) were quantified by LC-MS/MS. Selective inhibitors (fluvoxamine (CYP1A2), quinidine (CYP2D6), sulfaphenazole (CYP2C9), ticlopidine (CYP2C19), and ketoconazole (CYP3A4)) were used as positive controls. Test and control compounds, prepared in DMSO at various concentrations, were spiked into 2× microsomal reaction mixtures, and 50 µL aliquots were transferred to individual wells. Probe substrates (25 µL, 4× concentration) were added to the respective wells and pre-incubated for 5 min at 37 °C. Reactions were initiated by the addition of 25 µL NADPH (4×) and incubated for 5 min (CYP3A4), 10 min (CYP1A2, CYP2D6, CYP2C9), or 20 min (CYP2C19). Reactions were quenched with 100 µL ice-cold acetonitrile containing glipizide as an internal standard. Plates were centrifuged at 4000 rpm for 15 min, and 100 µL supernatants were analyzed by LC-MS/MS in MRM mode. […] Percent inhibition was calculated as 100 − percent activity. IC50 values were determined using GraphPad Prism (version 5.02)."}, "CYP2C19": {"target": "T2, CYP2C19 (Homo sapiens, UniProt P33261)", "T2 construct": "from tissue; host or cells: human liver microsomes", "T2 sequence (P33261 whole entry)": "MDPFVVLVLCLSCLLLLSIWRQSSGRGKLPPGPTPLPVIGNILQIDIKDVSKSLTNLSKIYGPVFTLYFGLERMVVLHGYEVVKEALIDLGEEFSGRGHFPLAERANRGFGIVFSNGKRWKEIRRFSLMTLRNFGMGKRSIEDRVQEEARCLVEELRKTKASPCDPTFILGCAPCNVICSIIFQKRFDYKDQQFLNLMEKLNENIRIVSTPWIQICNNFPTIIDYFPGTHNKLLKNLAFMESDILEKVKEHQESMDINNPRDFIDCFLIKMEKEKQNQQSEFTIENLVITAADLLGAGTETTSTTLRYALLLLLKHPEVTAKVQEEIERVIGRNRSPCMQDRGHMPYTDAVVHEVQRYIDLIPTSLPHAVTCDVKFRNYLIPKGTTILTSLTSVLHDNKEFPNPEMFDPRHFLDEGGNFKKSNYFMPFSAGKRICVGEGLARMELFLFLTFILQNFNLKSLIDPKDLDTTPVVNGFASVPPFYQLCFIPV", "experiment": "Cytochrome P450 inhibition", "type": "in vitro ADME", "conditions": "human liver microsomes; read-out: CYP Inhibition IC50, 2C19", "description": "as §2"}, "CYP2C9": {"target": "T3, CYP2C9 (Homo sapiens, UniProt P11712)", "T3 construct": "from tissue; host or cells: human liver microsomes", "T3 sequence (P11712 whole entry)": "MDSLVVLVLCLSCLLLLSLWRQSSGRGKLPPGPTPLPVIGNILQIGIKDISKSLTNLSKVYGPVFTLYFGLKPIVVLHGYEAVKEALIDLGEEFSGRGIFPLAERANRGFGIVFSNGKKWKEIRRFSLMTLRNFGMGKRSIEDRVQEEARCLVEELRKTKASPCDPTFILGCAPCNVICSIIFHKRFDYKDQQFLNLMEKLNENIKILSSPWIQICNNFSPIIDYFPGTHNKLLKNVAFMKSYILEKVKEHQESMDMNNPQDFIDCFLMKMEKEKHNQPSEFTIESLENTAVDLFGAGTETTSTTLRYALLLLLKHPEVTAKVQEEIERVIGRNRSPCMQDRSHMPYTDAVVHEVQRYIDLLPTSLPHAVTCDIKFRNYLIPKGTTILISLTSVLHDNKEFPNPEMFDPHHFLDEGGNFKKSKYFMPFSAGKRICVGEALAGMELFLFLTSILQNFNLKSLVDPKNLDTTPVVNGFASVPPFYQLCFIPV", "experiment": "Cytochrome P450 inhibition", "type": "in vitro ADME", "conditions": "human liver microsomes; read-out: CYP Inhibition IC50, 2C9", "description": "as §2"}, "P. aeruginosa ATCC 27853 [4]": {"system": "P. aeruginosa ATCC 27853", "experiment": "Neutropenic murine thigh infection model", "type": "in vivo, CD-1 mice", "description": "Female CD-1 mice (6–8 weeks old; 22 ± 2 g) were obtained from Envigo Laboratories, quarantined for at least 3 days, and housed 5 per cage in accordance with the approved IACUC protocol (IACUC-2017-0049). Neutropenia was induced by intraperitoneal (IP) administration of cyclophosphamide (Cytoxan) at 150 mg/kg on day 4 and 100 mg/kg on day 1 prior to infection.\nMice were infected intramuscularly (IM) in the right thigh with 0.1 mL of bacterial suspension containing approximately 1 × 10^5–10^6 CFU/mL. […] At 2 h or 24 h post-infection, mice were euthanized by CO2 asphyxiation, and thighs were aseptically excised and placed in 2 mL sterile phosphate-buffered saline (PBS) on ice. Tissue homogenization was performed using a Polytron PT10-35 (12 mm aggregate, Kinematica, Malters, Switzerland).\nPlates were incubated overnight at 37 °C, and colonies were enumerated the following day."}, "P. aeruginosa": {"system": "P. aeruginosa", "experiment": "Effect of inoculum on levofloxacin potentiation (MIC)", "type": "cell-based, Pseudomonas aeruginosa", "description": "as §1"}, "[5]": {"conditions": "combined CDC/FDA and WRAIR MDR isolate sets"}, "[6]": {"conditions": "+24 hr, TXA11114 30 mg/kg IV QID alone"}}, "note": "Where two headings read alike, the source gives them in different places.", "data": [{"smiles": "NCC(F)C[C@@H](N)CNC(=O)c1cc2ccc(-c3ccc(F)cc3)cc2[nH]1", "note": "(stereo partly drawn) [TXA11114, N-((2R)-2,5-diamino-4-fluoropentyl)-6-(4-fluorophenyl)-1H-indole-2-carboxamide]", "values": [{"measurement": "Fold MIC reduction [LVX/EPI-LVX]", "setting": "P. aeruginosa ATCC 27853 [1]; EPI at […], ATCC 27853", "result": 8, "unit": "fold"}, {"measurement": "MIC", "setting": "P. aeruginosa ATCC 27853 [1]; ATCC 27853 parent strain (Table S1), read-out: MIC", "result": 100, "unit": "µg/mL"}, {"measurement": "MIC", "setting": "P. aeruginosa ATCC 27853 [1]; EPI alone, ATCC 27853, read-out: EPI MIC", "result": 100, "unit": "µg/mL"}, {"measurement": "LVX MIC (+EPI)", "setting": "P. aeruginosa ATCC 27853 [1]; levofloxacin MIC with EPI at […], ATCC 27853", "result": 0.125, "unit": "µg/mL"}, {"measurement": "Levofloxacin MIC fold difference, +EPI", "setting": "[2]; AR-0229", "result": 32, "unit": "fold"}, {"measurement": "Levofloxacin MIC, +EPI", "setting": "[2]; AR-0229", "result": 2, "unit": "µg/mL"}, {"measurement": "Levofloxacin MIC fold difference, +EPI", "setting": "[2]; AR-0232", "result": 16, "unit": "fold"}, {"measurement": "Levofloxacin MIC, +EPI", "setting": "[2]; AR-0232", "result": 0.5, "unit": "µg/mL"}, {"measurement": "Levofloxacin MIC fold difference, +EPI", "setting": "[2]; AR-0233", "result": 8, "unit": "fold"}, {"measurement": "Levofloxacin MIC, +EPI", "setting": "[2]; AR-0233", "result": 0.5, "unit": "µg/mL"}, {"measurement": "Levofloxacin MIC fold difference, +EPI", "setting": "[2]; AR-0234", "result": 32, "unit": "fold"}, {"measurement": "Levofloxacin MIC, +EPI", "setting": "[2]; AR-0234", "result": 0.25, "unit": "µg/mL"}, {"measurement": "Levofloxacin MIC fold difference, +EPI", "setting": "[2]; AR-0239", "result": 4, "unit": "fold"}, {"measurement": "Levofloxacin MIC, +EPI", "setting": "[2]; AR-0239", "result": 8, "unit": "µg/mL"}, {"measurement": "Levofloxacin MIC fold difference, +EPI", "setting": "[2]; AR-0242", "result": 4, "unit": "fold"}, {"measurement": "Levofloxacin MIC, +EPI", "setting": "[2]; AR-0242", "result": 2, "unit": "µg/mL"}, {"measurement": "Levofloxacin MIC fold difference, +EPI", "setting": "[2]; AR-0244", "result": "8, (8) fold"}, {"measurement": "Levofloxacin MIC, +EPI", "setting": "[2]; AR-0244", "result": "8, (8) μg/mL"}, {"measurement": "Levofloxacin MIC fold difference, +EPI", "setting": "[2]; AR-0246", "result": "8, (8) fold"}, {"measurement": "Levofloxacin MIC, +EPI", "setting": "[2]; AR-0246", "result": "8, (8) μg/mL"}, {"measurement": "Levofloxacin MIC fold difference, +EPI", "setting": "[2]; AR-0248", "result": 8, "unit": "fold"}, {"measurement": "Levofloxacin MIC, +EPI", "setting": "[2]; AR-0248", "result": 2, "unit": "µg/mL"}, {"measurement": "Levofloxacin MIC fold difference, +EPI", "setting": "[2]; AR-0249", "result": 16, "unit": "fold"}, {"measurement": "Levofloxacin MIC, +EPI", "setting": "[2]; AR-0249", "result": 4, "unit": "µg/mL"}, {"measurement": "Levofloxacin MIC fold difference, +EPI", "setting": "[2]; AR-0252", "result": 8, "unit": "fold"}, {"measurement": "Levofloxacin MIC, +EPI", "setting": "[2]; AR-0252", "result": 4, "unit": "µg/mL"}, {"measurement": "Levofloxacin MIC fold difference, +EPI", "setting": "[2]; AR-0253", "result": 16, "unit": "fold"}, {"measurement": "Levofloxacin MIC, +EPI", "setting": "[2]; AR-0253", "result": 0.125, "unit": "µg/mL"}, {"measurement": "Levofloxacin MIC fold difference, +EPI", "setting": "[2]; AR-0264", "result": 16, "unit": "fold"}, {"measurement": "Levofloxacin MIC, +EPI", "setting": "[2]; AR-0264", "result": 4, "unit": "µg/mL"}, {"measurement": "Share of CDC isolates with levofloxacin MIC reduced ≥8-fold (potentiated)", "setting": "[2]; TXA11114 […], PAβN and MC-04,124 50 µg/mL", "result": "approximately 85%"}, {"measurement": "Share of isolates in which levofloxacin was potentiated", "setting": "[2]; [5]", "result": "> 90", "unit": "%"}, {"measurement": "Share of strains restored to levofloxacin susceptibility at or below EUCAST breakpoint (≤2 μg/mL)", "setting": "[2]; [5]", "result": "approximately 60%"}, {"measurement": "Reductions in levofloxacin MIC values in many strains", "setting": "[2]; diverse MDR clinical isolates", "result": "4- to 32 fold"}, {"measurement": "Levofloxacin MIC in presence of TXA11114", "setting": "[3]", "result": 1, "unit": "µg/mL"}, {"measurement": "IC50", "setting": "CYP1A2", "result": "> 100", "unit": "µM"}, {"measurement": "IC50", "setting": "CYP2C19", "result": "> 100", "unit": "µM"}, {"measurement": "IC50", "setting": "CYP2C9", "result": "> 100", "unit": "µM"}, {"measurement": "Effect of EPI alone on bacterial burden, thigh", "setting": "P. aeruginosa ATCC 27853 [4]; 30 mg/kg, IV, QID", "result": "had no impact on bacterial burden"}, {"measurement": "Mean Log10 CFU (thigh)", "setting": "P. aeruginosa ATCC 27853 [4]; [6]", "result": 8.95, "unit": "log10 CFU"}, {"measurement": "Mean Log10 CFU Change vs +2 hr Control, Δlog10 (treatment-baseline), thigh", "setting": "P. aeruginosa ATCC 27853 [4]; [6]", "result": 2.87, "unit": "log10 CFU"}, {"measurement": "Mean Log10 CFU Change vs +24 hr Control, thigh", "setting": "P. aeruginosa ATCC 27853 [4]; TXA11114 30 mg/kg IV QID alone", "result": 0.13, "unit": "log10 CFU"}, {"measurement": "CFU reduction by combination, exceeding levofloxacin alone", "setting": "P. aeruginosa ATCC 27853 [4]; murine thigh and lung infection models", "result": "> 1", "unit": "log10 CFU"}, {"measurement": "LVX MIC", "setting": "P. aeruginosa; OD600 0.001, TXA11114 25 μg/mL", "result": 0.031, "unit": "µg/mL"}, {"measurement": "LVX MIC fold difference", "setting": "P. aeruginosa; OD600 0.001, TXA11114 25 μg/mL", "result": 32, "unit": "fold"}, {"measurement": "LVX MIC", "setting": "P. aeruginosa; OD600 0.001, TXA11114 50 μg/mL", "result": 0.008, "unit": "µg/mL"}, {"measurement": "LVX MIC fold difference", "setting": "P. aeruginosa; OD600 0.001, TXA11114 50 μg/mL", "result": 128, "unit": "fold"}, {"measurement": "LVX MIC", "setting": "P. aeruginosa; OD600 0.025, TXA11114 25 μg/mL", "result": 0.063, "unit": "µg/mL"}, {"measurement": "LVX MIC fold difference", "setting": "P. aeruginosa; OD600 0.025, TXA11114 25 μg/mL", "result": 32, "unit": "fold"}, {"measurement": "LVX MIC", "setting": "P. aeruginosa; OD600 0.025, TXA11114 50 μg/mL", "result": 0.031, "unit": "µg/mL"}, {"measurement": "LVX MIC fold difference", "setting": "P. aeruginosa; OD600 0.025, TXA11114 50 μg/mL", "result": 64, "unit": "fold"}, {"measurement": "Minimal potentiation concentration (MPC)", "setting": "P. aeruginosa; standard broth microdilution inoculum", "result": 6.25, "unit": "µg/mL"}]}]}
